Converted amounts (≈) assume the structure as drawn. Where two headings read alike, the source gives them in different places.
What was measured:
physchem = conditions: organic solvent or mixture, thermodynamic from solid
[1] = in olive or corn oil; cited from earlier work

Row | solubility (physchem; solubility) [mg/mL] | solubility (physchem; maximum solubility) [mg/mL] | SMILES | solubility [1]
1 | 2.9 to 3.2 (≈ 8.75 to 9.66 mM) |  | CN1C(C(=O)Nc2ccccn2)=C(O)c2ccccc2S1(=O)=O [Piroxicam] | below 0.05%
2 |  | 160 (≈ 447 mM) | COc1ccc2c(c1)c(CC(=O)O)c(C)n2C(=O)c1ccc(Cl)cc1 [Indomethacin] | below 0.2%

Reference: patent US20060241175A1, “Vehicle for topical delivery of anti-inflammatory compounds” (priority 2002, published 2006)
